Data reported in patent US10828337B2, “Materials and methods for controlling vasculogenesis from endothelial colony forming cells” (Indiana University Research and Technology Corporation, priority 2011, dated 2020).

B1: TIMP-3: inhibitor (R&D Systems) added to the cultures to inhibit MT1-MMP activity (protein, UniProt P35625 24-211, looked up)
Metalloproteinase inhibitor 3: CTCSPSHPQDAFCNSDIVIRAKVVGKKLVKEGPFGTLVYTIKQMKMYRGFTKMPHVQYIHTEASESLCGLKLEVNKYQYLLTGRVYDGKMYTGLCNFVERWDQLTLSQRKGLNYRYHLGCNCKIKSCYYLPCFVTSKNECLWTDMLSNFGYPGYQSKHYACIRQKGGYCSWYRGWAPPDKSIINATDP

Test system: ECFC vacuole formation
Assay: Perturbation of ECFC vacuole formation by inhibitors
Format: cell-based, Human
Details: for way in which total vacuole area was decreased: Casin 2.5 μM (Cdc42), NSC23766 25 μM (Rac1), 3.0 mg/ml oligomer rich matrices (FIGS. 11 G, H); for effect on ECFC vacuole formation: MAB17781 1 μg/ml, Casin 2.5 μM, NSC23766 25 μM, TIMP-3 5 μg/ml
Procedure: For analysis of in vitro vacuole formation, cultures were fixed with 4% paraformaldehyde for 20 minutes at 48 hours. Scaffolds were stained with 0.1% toluidine blue 0 in 30% methanol for 20 minutes and then washed with PBS.
A Leica DM IRE2 microscope (Leica Microsystems, Bannockburn, Ill.) with attached Retiga 4000R digital camera (QImaging, Surrey, BC, Canada) was used to image the entire area of each matrix using a 10× objective and the middle 9 fields of view were used for analysis. Lumens were quantified using a standard image analysis system Metamorph (Molecular Devices, Sunnyvale, Calif.). […] Lumens were defined as areas completely surround by a toluidine blue labeled endothelial cell membrane.
Chemical inhibitors TIMP-3 (5 μg/ml, R&D Systems, Minneapolis, Minn.), Casin (2.5 μM), NSC23766 (25 μM), or MAB17781 (1 μg/ml, R&D Systems, Minneapolis, Minn.) were added into the media during ECFC culture in 3.0 mg/ml matrices polymerized with the oligomer rich fraction. Treatments were conducted in duplicate and at least three independent experiments were conducted.
To first determine if this signaling axis was involved in ECFC vacuole formation chemical inhibitors to β1 integrin, Cdc42, Rac1, and MT1-MMP were added to cultures to test if they would alter cell behavior.

[1] = 3.0 mg/ml oligomer rich matrices

Molecule | way in which total vacuole area was decreased | effect on ECFC vacuole formation [1] | vacuole density (inhibitor in media (MAB17781 1 μg/ml, TIMP-3 5 μg/ml), 3.0 mg/ml oligomer rich matrices, control 11.24±0.65) | vacuole area (inhibitor in media (MAB17781 1 μg/ml, TIMP-3 5 μg/ml), 3.0 mg/ml oligomer rich matrices, control 536.09±138.24) | total vacuole area (inhibitor in media (MAB17781 1 μg/ml, TIMP-3 5 μg/ml), 3.0 mg/ml oligomer rich matrices, control 19103.60±5447.67)
OCCNC1CCCc2c1[nH]c1ccc(-c3ccccc3)cc21 (centres unmarked) [Casin] | decreased total vacuole area by decreasing vacuole density | inhibited ECFC vacuole formation | – | – | –
CCN(CC)CCCC(C)Nc1nc(C)cc(Nc2ccc3nc(C)cc(N)c3c2)n1 (centres unmarked) [NSC23766] | decreased total vacuole area by decreasing average vacuole area | inhibited ECFC vacuole formation | – | – | –
B1 | – | inhibited ECFC vacuole formation | 3.31±1.38 vacuoles/mm^2 | 146.04±45.86 μm^2 | 2288.76±1685.92 μm^2
